Results published in patent US6447748B1, “Benzamide compounds for cancer imaging and therapy” (Research Corporation Technologies, Inc., priority 1993, dated 2002).

What was measured:
[1] = test system: human A2058 melanoma xenografts; assay: Biodistribution in nude mice xenografted with human melanotic melanoma; type: in vivo, Balb/c nu/nu mice; settings: for RATIO Tumor/Blood / RATIO Tumor/Muscle / Biodistribution Blood / Biodistribution Bone / Biodistribution Brain / Biodistribution Heart / Biodistribution Intestine / Biodistribution Kidney / Biodistribution Liver / Biodistribution Lung / Biodistribution Muscle / Biodistribution Spleen / Biodistribution Stomach / Biodistribution Thyroid / Biodistribution Tumor: nude mice, human melanotic melanoma, mean (std. dev.); for Biodistribution Blood / Biodistribution Bone / Biodistribution Brain / Biodistribution Heart / Biodistribution Intestine / Biodistribution Kidney / Biodistribution Liver / Biodistribution Lung / Biodistribution Muscle / Biodistribution Spleen / Biodistribution Stomach / Biodistribution Thyroid / Biodistribution Tumor: n = 6
Experimental: A2058 tumor cells, derived from a brain metastasis of human malignant melanoma (Todaro et al. 1980 Proc. Natl. Acad. Sci. USA 77:5258) were obtained from the National Institutes of Health. […] Suspension of 5×10^6 cells (viability greater than 95%) in 0.2 mL of medium were inoculated subcutaneously in female Balb/c nu/nu mice. After about two weeks, solid tumors of about 1 cm in diameter appeared in approximately 85% of all inoculated mice. […] Balb/c nu/nu mice (17-22 g) were injected intravenously with 0.2 ml of a saline solution containing [^125I]PAB (5-6 μCi). […] The values obtained were normalized to a mouse weighing 20 g. The differences between [^125I]PAB and [^125I]DAB were examined by Student's unpaired t tests.

[2] = test system: human squamous cell carcinoma xenografts; assay: Biodistribution in nude mice xenografted with human squamous cell carcinoma; type: in vivo, Balb/c nu/nu mice; settings: for Biodistribution Blood / Biodistribution Bone / Biodistribution Brain / Biodistribution Heart / Biodistribution Intestine / Biodistribution Kidney / Biodistribution Liver / Biodistribution Lung / Biodistribution Spleen / Biodistribution Stomach / Biodistribution Thyroid / Biodistribution Tumor: nude mice, human squamous cell carcinoma, mean (std. dev.), n = 6
Experimental: Non-small cell lung carcinoma cell lines NCI-157, NCI-838 and NCI-1299 were obtained from the National Cancer Institute. The NCI-157 cell line is a squamous carcinoma cell line, while NCI-838 is an adenocarcinoma cell line and NCI-1299 is a large cell lung carcinoma cell. […] Suspension of 5×10^6 cells (viability greater than 95%) in 0.2 mL of medium were inoculated subcutaneously in female Balb/c nu/nu mice. After about two weeks, solid tumors of about 1 cm in diameter appeared in approximately 85% of all inoculated mice. […] Balb/c nu/nu mice (17-22 g) were injected intravenously with 0.2 ml of a saline solution containing [^125I]PAB (5-6 μCi). […] The values obtained were normalized to a mouse weighing 20 g.

CCN(CC)CCNC(=O)c1ccc([125I])cc1 [[^125I]DAB, ^125I-N-(diethylaminoethyl)4-iodobenzamide, reference compound]
RATIO Tumor/Blood ([1]; 1 Hour): 5.68 (2.75) | RATIO Tumor/Muscle ([1]; 1 Hour): 5.33 (1.65) | Biodistribution Blood ([1]; 1 Hour): 1.03 (.318) % ID/g | Biodistribution Bone ([1]; 1 Hour): 1.04 (.476) % ID/g | Biodistribution Brain ([1]; 1 Hour): 1.04 (.0855) % ID/g | Biodistribution Heart ([1]; 1 Hour): 1.67 (.210) % ID/g | Biodistribution Intestine ([1]; 1 Hour): 5.04 (1.47) % ID/g | Biodistribution Kidney ([1]; 1 Hour): 4.63 (.905) % ID/g | Biodistribution Liver ([1]; 1 Hour): 12.7 (1.69) % ID/g | Biodistribution Lung ([1]; 1 Hour): 6.32 (1.55) % ID/g | Biodistribution Muscle ([1]; 1 Hour): 0.988 (.125) % ID/g | Biodistribution Spleen ([1]; 1 Hour): 3.46 (.206) % ID/g | Biodistribution Stomach ([1]; 1 Hour): 3.84 (1.98) % ID/g | Biodistribution Thyroid ([1]; 1 Hour): 5.68 (1.02) % ID/g | Biodistribution Tumor ([1]; 1 Hour): 5.18 (1.31) % ID/g | RATIO Tumor/Blood ([1]; 6 Hour): 28.1 (5.84) | RATIO Tumor/Muscle ([1]; 6 Hour): 33.3 (14.0) | Biodistribution Blood ([1]; 6 Hour): 1.03 (0.197) % ID/g | Biodistribution Bone ([1]; 6 Hour): 0.100 (.0297) % ID/g | Biodistribution Brain ([1]; 6 Hour): 0.132 (.0204) % ID/g | Biodistribution Heart ([1]; 6 Hour): 0.150 (.0329) % ID/g | Biodistribution Intestine ([1]; 6 Hour): 0.423 (.0963) % ID/g | Biodistribution Kidney ([1]; 6 Hour): 0.435 (.0909) % ID/g | Biodistribution Liver ([1]; 6 Hour): 3.74 (.427) % ID/g | Biodistribution Lung ([1]; 6 Hour): 0.458 (.0993) % ID/g | Biodistribution Muscle ([1]; 6 Hour): 0.0967 (.0356) % ID/g | Biodistribution Spleen ([1]; 6 Hour): 0.260 (.0990) % ID/g | Biodistribution Stomach ([1]; 6 Hour): 0.475 (.164) % ID/g | Biodistribution Thyroid ([1]; 6 Hour): 0.400 (.124) % ID/g | Biodistribution Tumor ([1]; 6 Hour): 2.83 (.388) % ID/g | RATIO Tumor/Blood ([1]; 24 Hour): 15.5 (4.69) | RATIO Tumor/Muscle ([1]; 24 Hour): 39.7 (9.61) | Biodistribution Blood ([1]; 24 Hour): 0.0350 (0.0084) % ID/g | Biodistribution Bone ([1]; 24 Hour): 0.0133 (.0052) % ID/g | Biodistribution Brain ([1]; 24 Hour): 0.0033 (.0052) % ID/g | Biodistribution Heart ([1]; 24 Hour): 0.0233 (.0175) % ID/g | Biodistribution Intestine ([1]; 24 Hour): 0.123 (.0717) % ID/g | Biodistribution Kidney ([1]; 24 Hour): 0.065 (.0197) % ID/g | Biodistribution Liver ([1]; 24 Hour): 1.12 (.232) % ID/g | Biodistribution Lung ([1]; 24 Hour): 0.0633 (.0273) % ID/g | Biodistribution Muscle ([1]; 24 Hour): 0.0150 (.0084) % ID/g | Biodistribution Spleen ([1]; 24 Hour): 0.0350 (.023) % ID/g | Biodistribution Stomach ([1]; 24 Hour): 0.445 (.386) % ID/g | Biodistribution Tumor ([1]; 24 Hour): 0.553 (.241) % ID/g | amount in tumors relative to livers ([1]; 24 hrs., melanoma xenograft): about half | Biodistribution Blood ([2]; 1 hr.): 1.35 (0.42) % ID/g | Biodistribution Bone ([2]; 1 hr.): 1.85 (0.22) % ID/g | Biodistribution Brain ([2]; 1 hr.): 1.57 (0.05) % ID/g | Biodistribution Heart ([2]; 1 hr.): 2.21 (0.16) % ID/g | Biodistribution Intestine ([2]; 1 hr.): 5.64 (0.58) % ID/g | Biodistribution Kidney ([2]; 1 hr.): 7.64 (0.35) % ID/g | Biodistribution Liver ([2]; 1 hr.): 13.77 (0.72) % ID/g | Biodistribution Lung ([2]; 1 hr.): 6.38 (0.89) % ID/g | Biodistribution Spleen ([2]; 1 hr.): 3.58 (0.28) % ID/g | Biodistribution Stomach ([2]; 1 hr.): 5.41 (0.53) % ID/g | Biodistribution Thyroid ([2]; 1 hr.): 8.22 (0.72) % ID/g | Biodistribution Tumor ([2]; 1 hr.): 5.13 (0.74) % ID/g | Biodistribution Blood ([2]; 6 hr.): 0.301 (0.04) % ID/g | Biodistribution Bone ([2]; 6 hr.): 0.21 (0.01) % ID/g | Biodistribution Brain ([2]; 6 hr.): 0.23 (0.05) % ID/g | Biodistribution Heart ([2]; 6 hr.): 0.38 (0.11) % ID/g | Biodistribution Intestine ([2]; 6 hr.): 1.34 (0.27) % ID/g | Biodistribution Kidney ([2]; 6 hr.): 1.07 (0.16) % ID/g | Biodistribution Liver ([2]; 6 hr.): 5.84 (0.51) % ID/g | Biodistribution Lung ([2]; 6 hr.): 1.07 (0.14) % ID/g | Biodistribution Spleen ([2]; 6 hr.): 0.51 (0.08) % ID/g | Biodistribution Stomach ([2]; 6 hr.): 2.7 (0.98) % ID/g | Biodistribution Thyroid ([2]; 6 hr.): 1.48 (0.55) % ID/g | Biodistribution Tumor ([2]; 6 hr.): 2.17 (0.09) % ID/g | Biodistribution Blood ([2]; 24 hr.): 0.027 (0.00) % ID/g | Biodistribution Brain ([2]; 24 hr.): 0.00 (0.00) % ID/g | Biodistribution Heart ([2]; 24 hr.): 0.00 (0.00) % ID/g | Biodistribution Intestine ([2]; 24 hr.): 0.05 (0.01) % ID/g | Biodistribution Kidney ([2]; 24 hr.): 0.05 (0.00) % ID/g | Biodistribution Liver ([2]; 24 hr.): 1.25 (0.10) % ID/g | Biodistribution Lung ([2]; 24 hr.): 0.03 (0.00) % ID/g | Biodistribution Spleen ([2]; 24 hr.): 0.01 (0.00) % ID/g | Biodistribution Stomach ([2]; 24 hr.): 0.15 (0.02) % ID/g | Biodistribution Thyroid ([2]; 24 hr.): 0.03 (0.01) % ID/g | Biodistribution Tumor ([2]; 24 hr.): 0.18 (0.02) % ID/g | amount in livers relative to tumors ([2]; 24 hrs., squamous cell carcinoma xenograft): about six-fold
